Source: US20050267020A1, “Polypeptides derived from inducible hsp70 and pharmaceutical compositions containing the same” (priority 2001, published 2005)

Assays:
[1] = molecular target: T1, HLA-A*0201/peptide complex (Homo sapiens, UniProt P04439, D140Y/D185E/D98H/E176V/E277Q/G131W/G231S/I119V/I121R/I166T/I218V/L300P/L318F/N151K/N90K/P208A/P217A/Q86G/Q94H/R138H/R169H/T345S); assay: Assessment of peptide/HLA class I complex stability (DC50); type: binding; settings: half life (DC50) of the HLA-A*0201/peptide complex
T1 construct: Tap−/− cells expressing the studied HLA-class I molecule; endogenous in cells; host or cells: T2 cells (Tap-/-, HLA-A*0201)
Method: Assessment of Peptide/HLA class I Complex Stability. Tap−/− cells (10^6/mL) were incubated overnight with 100 μM of each peptide in serum-free RPMI 1640 medium supplemented with 100 ng/mL of […] at 37° C. Cells were then washed four times to remove free peptide, incubated with Brefeldin A (10 μg/mL) for 1 hour to block cell surface expression of newly synthesized HLA molecules, washed and incubated at 37° C. for 0, 2, 4 or 6 hours. Subsequently, cells were stained with the HLA specific mAb followed by FITC conjugated goat anti mouse Ig mAb. For each time point, peptide induced HLA expression was calculated as: Mean fluorescence of peptide preincubated cells—Mean fluorescence of cells treated in similar conditions in the absence of peptide. DC50 (dissociation complex; DC) was defined as the time required for the loss of 50% of the HLA-A*0201/peptide complexes stabilized at t=0.
The affinity of each peptide was assayed experimentally by determination of the Relative Affinity: the necessary peptide dose to stabilise a reference quantity of HLA-A*0201 molecules at the surface of T2 cells; and the stability of each peptide was assayed by determination of the half-life of the peptide/HLA-A*0201 molecule complex (DC50: dissociation complex 50).

[2] = test system: MCF-7 and SAOS tumor cell lines; assay: Recognition by murine CTL of epitopes at the surface of human tumor cells, TNF-α secretion assay; type: cell-based; settings: HLA-A*0201+ Hsp70+ tumor cells
Excerpt: CTL recognition of tumoral cells is expressed as CTL secretion of TNF-α dosed in supernatant (X Axis, TNF-α ranges from 0 to 1000 pg/ml) after contact with the cells. Upper to lower bars represent the different cells and reagents in contact with CTL, respectively: 2 negative controls (M113, M44), SAOS, MCF-7, MCF-7 blocked with anti-class I (w6/32) antibody before mixed culture, and MCF-7 blocked with an irrelevant antibody before mixed culture.
TNF-α Secretion Assay. Transfected COS cells on day 4 or 10^5 target tumor cells were plated in 50 μL RPMI 10% FCS and when necessary incubated with 10 μM peptide for 1 hour. In blocking experiments, anti-HLA class I antibody w6/32 or an irrelevant antibody were incubated with target cells for 1 h30. 5×10^4 T cells were then added in 50 μL RPMI 10% FCS and incubated for 6 hours. Each condition was tested in quadruplicates. 50 μL of the supernatant was collected. Standard dilutions were prepared in 50 μL with final doses of TNF-α (kindly provided by I. Apfler, Bender Wien, Austria) ranging from 10^4 to 0.08 pg/mL. On both the supernatants and the standards were added 50 μL of 3×10^4 TNF-α sensitive WEHI-164c13 cells. They were incubated for 16 hours at 37° C. (23). Inhibition of cell proliferation was evaluated by the MTT colorimetric method. Briefly, 50 μL of MTT at 2.5 mg/mL (Sigma-Aldrich) was added and incubated for 4 hours at 37° C. Cells were then lyzed with 100 μL of a pH4.7 33% N,N-dimethyl formamide (Sigma-Aldrich) 20% SDS solution in water. Two hours after cells lysis, OD was measured at 550 nm on a Dynatech MR5000 spectrophotometer. TNF-α quantitation was calculated by linear interpolation with the standard dilutions.
We studied whether the over-expression of Hsp70 described in certain tumor cell lines was high enough to enable these epitopes to be presented at the surface of tumor cells. We addressed this question with our already available high-avidity murine CTLs, hypothesizing that such a high CTL avidity enables the recognition of the highest-Hsp70 expressing human tumor cells. […]

HHD mice = assay: Generation of CTL in HLA-A*0201 transgenic HHD mice (immunogenicity); type: in vivo, mouse
Method: Generation of CTL in HLA-transgenic mice. HLA-transgenic mice were injected subcutaneously at the base of the tail with 100 μg of peptide emulsified in incomplete Freund's adjuvant (IFA) in the presence of 140 μg of the I-A^b restricted HBVcore-derived T-helper epitope (128-140; sequence TPPAYRPPNAPIL). After 11 days, spleen cells (5×10^7 cells in 10 mL) were stimulated in vitro with peptide (10 μM). On day 6 of culture, the bulk responder populations were tested for specific cytotoxicity. Upon response, the CTL line was then weekly re-stimulated in vitro with 20×10^6 35Gy irradiated spleen cells in the presence of 1 to 0.1 μM peptide and 50 U/mL IL-2 (Proleukin, Chiron Corp.). Cytotoxicity was assayed 6 days after the last stimulation and TNF-α secretion 11-13 days after, with the addition of 50 U/mL IL-2 on day 7. HHD mice transgenic for HLA-A*0201 were used. B7B7 Kd mice and mice transgenic for HLA-A*0301 are used for the study of the HLA-B*0701 and HLA-A*0301 restricted peptides respectively.

Sequence	Stability (hrs) [1] [h hrs]	presentation of the epitope at the surface of Hsp70 over-expressing human tumor cells [2]	induction of specific cytotoxic T cell immune response in HHD mice (HHD mice)
LLLLDVAPL [HSP 391]	>6	demonstrated	capable of generating a specific cytotoxic T cell immune response
LMGDKSENV [HSP 380]	4	demonstrated	capable of generating a specific cytotoxic T cell immune response
YLGYPVTNAV [HSP 134(10)]			capable of generating a specific cytotoxic T cell immune response
